This note sets out measurements from ChEMBL document CHEMBL4376808, “Triphenylphosphonium Analogues of Betulin and Betulinic Acid with Biological Activity: A Comprehensive Review” (J Nat Prod, 2019).

The term IC50 denotes the concentration that gives 50% inhibition.

What all share (assay type): functional, cell-based
For assay [1], the system named is A549. The assay is described as follows: Cytotoxic activity in human A549 cells assessed as reduction in cell viability.
The subject of assay [2] is MCF7. The assay is described as follows: Cytotoxic activity in human MCF7 cells assessed as reduction in cell viability.
The test system of assay [3] is HCT-116. The assay is described as follows: Cytotoxic activity in human HCT116 cells assessed as reduction in cell viability.

As for `C=C(C)[C@@H]1CC[C@]2(C(=O)OCc3cn(-c4ccc5c(c4)OCO5)nn3)CC[C@]3(C)[C@H](CC[C@@H]4[C@@]5(C)CCC(=O)C(C)(C)[C@@H]5CC[C@]43C)[C@@H]12`, in assay [1], the IC50 came to 5 µM.

For `C=C(C)[C@@H]1CC[C@]2(C(=O)O)CC[C@]3(C)[C@H](CC[C@@H]4[C@@]5(C)CC/C(=N/Nc6ccc([N+](=O)[O-])cc6[N+](=O)[O-])C(C)(C)[C@@H]5CC[C@]43C)[C@@H]12`, in assay [2], the IC50 was 8.2 µM.

With `C=C(C)[C@@H]1CC[C@]2(C(=O)OCc3cn(-c4ccc(O)c(C)c4)nn3)CC[C@]3(C)[C@H](CC[C@@H]4[C@@]5(C)CCC(=O)C(C)(C)[C@@H]5CC[C@]43C)[C@@H]12`, the IC50 in assay [3] was 3.5 µM.

As for `C=C(C)[C@@H]1CC[C@]2(C(=O)OCc3cn(-c4cccc(C(=O)O)c4)nn3)CC[C@]3(C)[C@H](CC[C@@H]4[C@@]5(C)CCC(=O)C(C)(C)[C@@H]5CC[C@]43C)[C@@H]12`, the half-maximal inhibitory concentration (IC50) in assay [3] stood at 4 µM.

As for `C=C(C)[C@@H]1CC[C@]2(C(=O)OCc3cn(-c4cccc(O)c4)nn3)CC[C@]3(C)[C@H](CC[C@@H]4[C@@]5(C)CCC(=O)C(C)(C)[C@@H]5CC[C@]43C)[C@@H]12`, the IC50 in assay [1] worked out at 3.7 µM.

Consider `C=C(C)[C@@H]1CC[C@]2(C(=O)O)CC[C@]3(C)[C@H](CC[C@@H]4[C@@]5(C)CC[C@H](OC(C)=O)C(C)(C)[C@@H]5CC[C@]43C)[C@@H]12`, for which the IC50 in assay [3] came to 9.6 µM.

On to `C=C(C)[C@@H]1CC[C@]2(C(=O)O)CC[C@]3(C)[C@H](CC[C@@H]4[C@@]5(C)CC[C@H](C#CCN6CCCC6)C(C)(C)[C@@H]5CC[C@]43C)[C@@H]12`, for which the IC50 in assay [2] turned out to be 5.5 µM.
